Among the data in patent US6864217B2, “Herbicidal compositions with substituted phenylsulfonylureas for controlling weeds in rice” (Hoechst Schering AgrEvo GmbH, priority 1998, dated 2005) are POLCO % control and ORYSW % damage values, retold here.

Counter-ions that a name gives are not always drawn.

Data set [1] relates to Polygonum convolvulus. As to the kind of experiment: Table 25 field trial, treatment at the 3 leaf stage: weed control. The format is in vivo. The conditions noted are these: 33 days after application. The text has this:
(§1) Field trial: Treatment at the 3 leaf stage, evaluation 33 days after the application.

Data set [2] relates to Oryza sativa. Nature of the data set: Table 5 field trial, treatment at the 2-4 leaf stage rice: rice damage. The format is in vivo. The conditions noted are these: evaluation after 28 days.
Experimental: (§2) The examples mentioned below were carried out in the greenhouse, and in some instances, in field trials.
Data set [3] deals with Oryza sativa. As to the kind of experiment: Table 26 field trial, treatment at the 3 leaf stage: rice damage. The format is in vivo. The conditions noted are these: 33 days after application.
Excerpt: as §1

The test system of data set [4] is Oryza sativa. As to the kind of experiment: Table 2 field trial, treatment at the 1-2 leaf stage rice: rice damage. The conditions noted are these: 28 days after application.
Experimental: as §2

For `COC(=O)c1ccc(I)cc1S(=O)(=O)NC(=O)Nc1nc(C)nc(OC)n1` [A1*), Sodium salt of methyl 4-iodo-2-[3-(4-methoxy-6-methyl-1,3,5-triazin-2-yl)ureidosulfonyl]benzoate], the POLCO % control was 35% in data set [1] (1.25 g of ai/ha) and 80% in data set [1] (2.5 g of ai/ha). For the same molecule, the ORYSW % damage is 0% in data set [2] (1.25 g of ai/ha); 0% in data set [2] (2.5 g of ai/ha); 1% in data set [2] (5 g of ai/ha); 0% in data set [3] (2.5 g of ai/ha); 0% in data set [3] (5 g of ai/ha); 10% in data set [4] (1.25 g of ai/ha). The ORYSW % damage in data set [4] (2.5 g of ai/ha) and in data set [4] (5 g of ai/ha) was 25% in each case.
